Measurements: patent publication US20260285853A1, “COMPOUNDS AND METHODS FOR MODULATING SPLICING” (REMIX THERAPEUTICS INC., priority 2023, published 2026)
Like-named read-outs stand apart in the source and are kept apart here.

Assays:
Type in all cases: cell-based
HTT mRNA [1] = test: Splicing RT-qPCR assay (THP), Table 2A
HTT mRNA [2] = test: Gene panel canonical junction qPCR assay, decrease in CJ mRNA, Table 3
Procedure, shortened: (§1)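 Cells: A673 or K562; 24 h compound exposure, 37 °C, 5% CO2; 11-pt 3-fold series from 10 uM final; DMSO ≤0.25%. Lysate → cDNA → qPCR with junction-spanning primers/probe for CJ transcript. ΔCt vs housekeeper, ΔΔCt vs DMSO, 2^(−ΔΔCt), % response, 4PL → IC50.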

MYB mRNA [3] = test: as above
Procedure, shortened: as §1

[4] = test system: SH-SY5Y (human neuroblastoma) cells; test: Cell viability, Cell Titer Glo 2.0 assay; settings: read-out: Viability SHSY5Y.3 GI50
Procedure, shortened: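 CellTiter-Glo 2.0 luminescence read-out after 72 h compound exposure (37 °C, 5% CO2); medium-only wells as blank. DMSO 0.1% final.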

MYB mRNA [5] = test: Splicing RT-qPCR assay (THP), Table 2A
[6] = Table 2A, THP, HTT alternative junction (AJ) mRNA, read-out: HTT AJ (AC50, increase in alternative junction mRNA)
[7] = Table 2A, THP, HTT canonical junction (CJ) mRNA, read-out: HTT CJ (IC50, decrease in canonical junction mRNA)
[8] = decrease in CJ mRNA levels, canonical junction qPCR, gene panel
[9] = Table 2A, THP, MYB alternative junction (AJ) mRNA, read-out: MYB AJ (AC50, increase in alternative junction mRNA)
[10] = Table 2A, THP, MYB canonical junction (CJ) mRNA, read-out: MYB CJ (IC50, decrease in canonical junction mRNA)
[11] = Table 2A (THP), AJ mRNA increase, read-out: HTT AJ (increase in alternative junction mRNA, AC50)
[12] = Table 2A (THP), CJ mRNA decrease, read-out: HTT CJ (decrease in canonical junction mRNA, IC50)
[13] = decrease in canonical junction (CJ) mRNA, gene panel qPCR, Table 3
[14] = Table 2A (THP), AJ mRNA increase, read-out: MYB AJ (increase in alternative junction mRNA, AC50)
[15] = Table 2A (THP), CJ mRNA decrease, read-out: MYB CJ (decrease in canonical junction mRNA, IC50)

| IC50 (HTT mRNA [1]; [7]) | IC50 (HTT mRNA [2]; [8]) | IC50 (MYB mRNA [3]; [8]) | GI50 [4] | IC50 (MYB mRNA [5]; [10]) | IC50 (HTT mRNA [1]; [12]) | IC50 (HTT mRNA [2]; [13]) | IC50 (MYB mRNA [3]; [13]) | IC50 (MYB mRNA [5]; [15]) | Structure (SMILES) | AC50 (HTT mRNA [1]; [6]) | AC50 (MYB mRNA [5]; [9]) | AC50 (HTT mRNA [1]; [11]) | AC50 (MYB mRNA [5]; [14]) |
| --- | --- | --- | --- | --- | --- | --- | --- | --- | --- | --- | --- | --- | --- |
| > 10 µM | > 10 µM | > 10 µM | > 10 µM | > 10 µM | – | – | – | – | CC(=O)NCc1nc(C)cn2cc(NC(=O)c3ccc(N4CCC(NC5CC5)CC4)c4cn(C)nc34)nc12 [Compound 725, N-[8-(acetamidomethyl)-6-methyl-imidazo[1,2-a]pyrazin-2-yl]-4-[4-(cyclopropylamino)-1-piperidyl]-2-methyl-indazole-7-carboxamide] | > 10 µM | > 10 µM | – | – |
| – | – | – | > 10 µM | – | > 10 µM | > 10 µM | > 10 µM | > 10 µM | CNC1CCCC(Oc2ccc(C(=O)Nc3cn4cc(C)nc(C)c4n3)c3nn(C)cc23)C1 (centres unmarked) [Compound 593] | – | – | > 10 µM | > 10 µM |
| 1 to 10 µM | – | – | 1 to 10 µM | > 10 µM | – | 1 to 10 µM | > 10 µM | – | CCNC1CCN(c2ccc(C(=O)Nc3cn4cc(C)nc(C)c4n3)c3nn(C)cc23)CC1C (centres unmarked) [Compound 604] | > 10 µM | 1 to 10 µM | – | – |

The next lines start with the compound.

| Structure (SMILES) | IC50 (HTT mRNA [1]; [7]) | IC50 (HTT mRNA [2]; [8]) | IC50 (MYB mRNA [3]; [8]) | GI50 [4] | IC50 (MYB mRNA [5]; [10]) | IC50 (HTT mRNA [1]; [12]) | IC50 (HTT mRNA [2]; [13]) | IC50 (MYB mRNA [3]; [13]) | IC50 (MYB mRNA [5]; [15]) | AC50 (HTT mRNA [1]; [6]) | AC50 (MYB mRNA [5]; [9]) | AC50 (HTT mRNA [1]; [11]) | AC50 (MYB mRNA [5]; [14]) |
| --- | --- | --- | --- | --- | --- | --- | --- | --- | --- | --- | --- | --- | --- |
| C=CCNC1CCN(c2cc(O)c(C(=O)Nc3cc(CNS(C)(=O)=O)c4nn(C)cc4c3)c3nn(C)cc23)CC1 [Compound 854] | > 10 µM | > 10 µM | 0.1 to 1 µM | 1 to 10 µM | 0.1 to 1 µM | – | – | – | – | 1 to 10 µM | 0.1 to 1 µM | – | – |
| CCNC1CCN(c2cc(F)c(C(=O)Nc3cn4cc(C)nc(OC)c4n3)c3nn(C)cc23)CC1 [Compound 351, 4-[4-(ethyl-amino)-1-piperidyl]-6-fluoro-N-(8-methoxy-6-methyl-imidazo[1,2-a]-pyrazin-2-yl)-2-methyl-indazole-7-carboxamide] | – | – | – | 1 to 10 µM | – | > 10 µM | > 10 µM | 1 to 10 µM | 1 to 10 µM | – | – | > 10 µM | > 10 µM |
| Cc1cn2cc(NC(=O)c3ccc(N4CCC(NC5CC5)CC4)c4cn(C)nc34)nc2c(Cn2cnc3ncnc(N)c32)n1 [Compound 831] | 0.1 to 1 µM | 0.1 to 1 µM | 0.1 to 1 µM | 0.1 to 1 µM | 0.1 to 1 µM | – | – | – | – | 0.1 to 1 µM | 0.1 to 1 µM | – | – |
| COc1nc2c(C(=O)Nc3cc(C)c4nn(C)cc4c3)ccc(N3C[C@H](C)N[C@@H](C)C3)c2s1 [Compound 718, N-(2,7-dimethylindazol-5-yl)-7-[(3S,5S)-3,5-dimethylpiperazin-1-yl]-2-methoxy-1,3-benzothiazole-4-carboxamide] | 1 to 10 µM | 1 to 10 µM | < 0.1 µM | < 0.1 µM | < 0.1 µM | – | – | – | – | 1 to 10 µM | < 0.1 µM | – | – |
| COc1cc2nn(C)cc2cc1NC(=O)c1ccc(N(C)C2CCNCC2)c2cn(C)nc12 [Compound 548] | – | – | – | 1 to 10 µM | – | > 10 µM | > 10 µM | 0.1 to 1 µM | 0.1 to 1 µM | – | – | > 10 µM | 0.1 to 1 µM |
| CCNC1CCN(c2ccc(C(=O)Nc3cc(CC(=O)NC)c4nc(C)cn4c3)c3nn(C)cc23)CC1 [Compound 341, 4-(4-(ethylamino)piperidin-1-yl)-2-methyl-N-(2-methyl-8-(2-(methylamino)-2-oxoethyl)imidazo[1,2-a]-pyridin-6-yl)-2H-indazole-7-carboxamide bis(2,2,2-trifluoroacetate)] | – | – | – | > 10 µM | – | 1 to 10 µM | 1 to 10 µM | > 10 µM | > 10 µM | – | – | > 10 µM | 1 to 10 µM |
| Cn1cc2cc(NC(=O)c3ccc(N4CCC(NC5CC5)CC4)c4cn(C)nc34)cc(CCNS(C)(=O)=O)c2n1 [Compound 840] | 1 to 10 µM | 1 to 10 µM | 1 to 10 µM | > 10 µM | 1 to 10 µM | – | – | – | – | > 10 µM | 1 to 10 µM | – | – |
| Cn1cc2cc(NC(=O)c3ccc(N4CCC(NC5CC5)CC4)c4cn(C)nc34)cc(CO)c2n1 [Compound 793] | > 10 µM | > 10 µM | 1 to 10 µM | 1 to 10 µM | 1 to 10 µM | – | – | – | – | > 10 µM | 1 to 10 µM | – | – |
